Measured values taken from ChEMBL document CHEMBL1134235, “Bisphosphonates derived from fatty acids are potent growth inhibitors of Trypanosoma cruzi” (Bioorg Med Chem Lett, 2001).

Columns and labels:
Trypanosoma cruzi [1] = test: In vitro antiparasitic activity against Trypanosoma cruzi (amastigotes); assay type: functional, organism-based
Trypanosoma cruzi [2] = test: In vitro antiparasitic activity against Trypanosoma cruzi (epimastigotes); assay type: functional, organism-based
Trypanosoma cruzi [3] = test: In vitro […] antiparasitic activity against Trypanosoma cruzi at 70 uM (amastigotes); assay type: functional
Trypanosoma cruzi [4] = test: In vitro […] antiparasitic activity against Trypanosoma cruzi at 50 uM (amastigotes); assay type: functional

Structure (SMILES)	IC50 (Trypanosoma cruzi [1])	IC50 (Trypanosoma cruzi [2])	inhibition at 70 µM (Trypanosoma cruzi [3])	inhibition at 50 µM (Trypanosoma cruzi [4])
CCCCCCCCC(O)(P(=O)(O)O)P(=O)(O)O	65.8 µM	> 70 µM	–	–
O=P(O)(O)C(O)(COc1ccc(Oc2ccccc2)cc1)P(=O)(O)O	> 50 µM	–	23%	–
O=P(O)(O)C(O)(COc1ccc(Cl)cc1Cl)P(=O)(O)O	> 50 µM	–	–	37%
CCCCCCCC(O)(P(=O)(O)O)P(=O)(O)O	> 70 µM	> 70 µM	41%	–
CCCCCC(O)(P(=O)(O)O)P(=O)(O)O	70 µM	> 70 µM	34%	–
O=P(O)(O)C(O)(COc1ccccc1)P(=O)(O)O	> 70 µM	–	16%	–
CCCC(O)(P(=O)(O)O)P(=O)(O)O	21.4 µM	> 70 µM	–	–
CCCCCCCCCC(O)(P(=O)(O)O)P(=O)(O)O	> 70 µM	> 70 µM	10%	–
CCCCCCC(O)(P(=O)(O)O)P(=O)(O)O	18.1 µM	> 70 µM	–	–
CCCCCCCCCCCCCC(O)(P(=O)(O)O)P(=O)(O)O	53.5 µM	–	–	–
NCCCC(O)(P(=O)(O)O)P(=O)(O)O [ALENDRONIC ACID]	65 µM	–	–	–
NCCC(O)(P(=O)(O)O)P(=O)(O)O [PAMIDRONIC ACID]	65 µM	–	–	–
O=P(O)(O)C(O)(Cc1cccnc1)P(=O)(O)O [RISEDRONIC ACID]	300 µM	–	–	–
